Measured values taken from patent US20180002319A1, “MACROCYCLIC PICOLINAMIDE COMPOUNDS WITH FUNGICIDAL ACTIVITY” (DOW AGROSCIENCES LLC, priority 2014, published 2018).

What follows are molecules tested on Erysiphe cichoracearum (assay: Powdery Mildew of Cucumber (ERYSCI) fungicidal activity). Conditions: Golovinomyces cichoracearum, 24 h, 1DP (1 Day Protectant), read-out: ERYSCI Disease Control.
Assay type: in vivo
Method: Technical grades of materials were dissolved in acetone, which were then mixed with nine volumes of H2O containing 110 ppm Triton X-100. The fungicide solutions were applied onto wheat seedlings using an automated booth sprayer to run-off. All sprayed plants were allowed to air dry prior to further handling. All fungicides were evaluated using the aforementioned method for their activity vs. all target diseases, unless stated otherwise. Wheat leaf blotch and brown rust activity were also evaluated using track spray applications, in which case the fungicides were formulated as EC formulations, containing 0.1% Trycol 5941 in the spray solutions. Wheat plants (variety Yuma) were grown from seed in a greenhouse in 50% mineral soil/50% soil-less Metro mix until the first leaf was fully emerged, with 7-10 seedlings per pot. These plants were inoculated with an aqueous spore suspension of Zymoseptoria tritici either prior to or after fungicide treatments. After inoculation the plants were kept in 100% relative humidity (one day in a dark dew chamber followed by two to three days in a lighted dew chamber at 20° C.) to permit spores to germinate and infect the leaf. The plants were then transferred to a greenhouse set at 20° C. for disease to develop. When disease symptoms were fully expressed on the 1st leaves of untreated plants, infection levels were assessed on a scale of 0 to 100 percent disease severity. Percent disease control was calculated using the ratio of disease severity on treated plants relative to untreated plants. Example F: Evaluation of Fungicidal Activity: Powdery Mildew of Cucumber (Erysiphe cichoracearum; Bayer Code […]) Cucumber seedlings (variety Bush Pickle) were grown in soil-less Metro mix, with one plant per pot, and used in the test when 12 to 14 days old. Plants were inoculated with a spore suspension 24 hr following fungicide treatments. After inoculation the plants remained in the greenhouse set at 20° C. until disease was fully expressed. Fungicide formulation, application and disease assessment on the sprayed leaves followed the procedures as described in the Example A.

| Structure (SMILES) | pest or weed control at 100 ppm [%] |
| --- | --- |
| CCCCO[C@H]1CCOC[C@H](NC(=O)c2nccc(OC)c2OCOC(C)=O)C(=O)O[C@@H](C)[C@@H]1OCc1ccccc1 [Compound 2] | < 80 |
| CCCCCO[C@H]1[C@H](C)OC(=O)[C@@H](NC(=O)c2nccc(OC)c2OCOC(C)=O)CCCC[C@@H]1Oc1ccccc1 [Compound 17] | < 80 |
| CCCO[C@H]1[C@H](C)OC(=O)[C@@H](NC(=O)c2nccc(OC)c2OCOC(C)=O)CCCC[C@@H]1Oc1ccccc1 [Compound 18] | < 80 |
| COc1ccnc(C(=O)N[C@H]2CCCC[C@H](Oc3ccccc3)[C@@H](Oc3ccccc3)[C@H](C)OC2=O)c1OCOC(C)=O [Compound 19] | < 80 |
| COc1ccnc(C(=O)N[C@H]2COCC[C@H](Cc3ccccc3)[C@@H](OCC(C)C)[C@H](C)OC2=O)c1OCOC(C)=O [Compound 20] | < 80 |
| COc1ccnc(C(=O)N[C@H]2COCC[C@H](Cc3ccccc3)[C@@H](OCC(C)C)[C@H](C)OC2=O)c1OC(C)=O [Compound 21] | < 80 |

What follows are molecules tested on Cercospora beticola (assay: Leaf Spot of Sugar Beets (CERCBE) fungicidal activity). Conditions: 24 h, 1DP (1 Day Protectant), sugar beet, read-out: CERCBE Disease Control.
Assay type: in vivo
Method: Technical grades of materials were dissolved in acetone, which were then mixed with nine volumes of H2O containing 110 ppm Triton X-100. The fungicide solutions were applied onto wheat seedlings using an automated booth sprayer to run-off. All sprayed plants were allowed to air dry prior to further handling. All fungicides were evaluated using the aforementioned method for their activity vs. all target diseases, unless stated otherwise. Wheat leaf blotch and brown rust activity were also evaluated using track spray applications, in which case the fungicides were formulated as EC formulations, containing 0.1% Trycol 5941 in the spray solutions. Wheat plants (variety Yuma) were grown from seed in a greenhouse in 50% mineral soil/50% soil-less Metro mix until the first leaf was fully emerged, with 7-10 seedlings per pot. These plants were inoculated with an aqueous spore suspension of Zymoseptoria tritici either prior to or after fungicide treatments. After inoculation the plants were kept in 100% relative humidity (one day in a dark dew chamber followed by two to three days in a lighted dew chamber at 20° C.) to permit spores to germinate and infect the leaf. The plants were then transferred to a greenhouse set at 20° C. for disease to develop. When disease symptoms were fully expressed on the 1st leaves of untreated plants, infection levels were assessed on a scale of 0 to 100 percent disease severity. Percent disease control was calculated using the ratio of disease severity on treated plants relative to untreated plants. Example G: Evaluation of Fungicidal Activity: Leaf Spot of Sugar Beets (Cercospora beticola; Bayer Code CERCBE) Sugar beet plants (variety HH88) were grown in soil-less Metro mix and trimmed regularly to maintain a uniform plant size prior to test. Plants were inoculated with a spore suspension 24 hr after fungicide treatments. Inoculated plants were kept in a dew chamber at 22° C. for 48 hr then incubated in a greenhouse set at 24° C. under a clear plastic hood with bottom ventilation until disease symptoms were fully expressed. Fungicide formulation, application and disease assessment on the sprayed leaves followed the procedures as described in the Example A.

| Structure (SMILES) | pest or weed control at 100 ppm [%] |
| --- | --- |
| CCCCO[C@H]1CCOC[C@H](NC(=O)c2nccc(OC)c2OCOC(C)=O)C(=O)O[C@@H](C)[C@@H]1OCc1ccccc1 [Compound 2] | > 80 |
| CCCCO[C@H]1CCOC[C@H](NC(=O)c2nccc(OC)c2OCOC(C)=O)C(=O)O[C@@H](C)[C@@H]1OC(=O)C(C)C [Compound 3] | < 80 |
| CCCCO[C@H]1CCOC[C@H](NC(=O)c2nccc(OC)c2OCOC(C)=O)C(=O)O[C@@H](C)[C@@H]1OC(=O)c1ccccc1 [Compound 4] | < 80 |
| CCCCO[C@H]1CCOC[C@H](NC(=O)c2nccc(OC)c2OCOC(C)=O)C(=O)O[C@@H](C)[C@@H]1OC(=O)C1CC1 [Compound 5] | < 80 |
| COc1ccnc(C(=O)N[C@H]2COCC[C@@H](OCC(C)C)[C@@H](OCC(C)C)[C@H](C)OC2=O)c1OCOC(C)=O [Compound 6] | > 80 |
| CCCCCO[C@H]1[C@H](C)OC(=O)[C@@H](NC(=O)c2nccc(OC)c2OCOC(C)=O)CCCC[C@@H]1Oc1ccccc1 [Compound 17] | > 80 |
| CCCO[C@H]1[C@H](C)OC(=O)[C@@H](NC(=O)c2nccc(OC)c2OCOC(C)=O)CCCC[C@@H]1Oc1ccccc1 [Compound 18] | > 80 |
| COc1ccnc(C(=O)N[C@H]2CCCC[C@H](Oc3ccccc3)[C@@H](Oc3ccccc3)[C@H](C)OC2=O)c1OCOC(C)=O [Compound 19] | > 80 |
| COc1ccnc(C(=O)N[C@H]2COCC[C@H](Cc3ccccc3)[C@@H](OCC(C)C)[C@H](C)OC2=O)c1OCOC(C)=O [Compound 20] | > 80 |
| COc1ccnc(C(=O)N[C@H]2COCC[C@H](Cc3ccccc3)[C@@H](OCC(C)C)[C@H](C)OC2=O)c1OC(C)=O [Compound 21] | < 80 |
| COc1ccnc(C(=O)N[C@H]2CCOC[C@H](Oc3ccccc3)[C@@H](Oc3ccccc3)[C@H](C)OC2=O)c1OCOC(C)=O [Compound 37] | > 80 |

The molecules below were run on Glomerella lagenarium; Anamorph: Colletotrichum lagenarium (assay: Cucumber Anthracnose (COLLLA) fungicidal activity). Conditions: Colletotrichum orbiculare, 24 h, 1DP (1 Day Protectant), read-out: COLLLA Disease Control.
Assay type: in vivo
Method: Technical grades of materials were dissolved in acetone, which were then mixed with nine volumes of H2O containing 110 ppm Triton X-100. The fungicide solutions were applied onto wheat seedlings using an automated booth sprayer to run-off. All sprayed plants were allowed to air dry prior to further handling. All fungicides were evaluated using the aforementioned method for their activity vs. all target diseases, unless stated otherwise. Wheat leaf blotch and brown rust activity were also evaluated using track spray applications, in which case the fungicides were formulated as EC formulations, containing 0.1% Trycol 5941 in the spray solutions. Wheat plants (variety Yuma) were grown from seed in a greenhouse in 50% mineral soil/50% soil-less Metro mix until the first leaf was fully emerged, with 7-10 seedlings per pot. These plants were inoculated with an aqueous spore suspension of Zymoseptoria tritici either prior to or after fungicide treatments. After inoculation the plants were kept in 100% relative humidity (one day in a dark dew chamber followed by two to three days in a lighted dew chamber at 20° C.) to permit spores to germinate and infect the leaf. The plants were then transferred to a greenhouse set at 20° C. for disease to develop. When disease symptoms were fully expressed on the 1st leaves of untreated plants, infection levels were assessed on a scale of 0 to 100 percent disease severity. Percent disease control was calculated using the ratio of disease severity on treated plants relative to untreated plants. Example N: Evaluation of Fungicidal Activity: Cucumber Anthracnose (Glomerella lagenarium; Anamorph: Colletotrichum lagenarium; Bayer Code COLLLA) Cucumber seedlings (variety Bush Pickle) were propagated in soil-less Metro mix, with each pot having one plant, and used in the test when 12 to 14 days old. Test plants were inoculated with an aqueous spore suspension of Colletotrichum lagenarium 24 hr after fungicide treatments. After inoculation the plants were kept in a dew room at 22° C. with 100% relative humidity for 48 hr to permit spores to germinate and infect the leaf. The plants were then transferred to a growth room set at 22° C. for disease to develop. Fungicide formulation, application and disease assessment on the sprayed leaves followed the procedures as described in the Example A.

| Structure (SMILES) | pest or weed control at 100 ppm [%] |
| --- | --- |
| CCCCO[C@H]1CCOC[C@H](NC(=O)c2nccc(OC)c2OCOC(C)=O)C(=O)O[C@@H](C)[C@@H]1OCc1ccccc1 [Compound 2] | > 80 |
| CCCCO[C@H]1CCOC[C@H](NC(=O)c2nccc(OC)c2OCOC(C)=O)C(=O)O[C@@H](C)[C@@H]1OC(=O)C(C)C [Compound 3] | < 80 |
| CCCCO[C@H]1CCOC[C@H](NC(=O)c2nccc(OC)c2OCOC(C)=O)C(=O)O[C@@H](C)[C@@H]1OC(=O)c1ccccc1 [Compound 4] | > 80 |
| CCCCO[C@H]1CCOC[C@H](NC(=O)c2nccc(OC)c2OCOC(C)=O)C(=O)O[C@@H](C)[C@@H]1OC(=O)C1CC1 [Compound 5] | < 80 |
| COc1ccnc(C(=O)N[C@H]2COCC[C@@H](OCC(C)C)[C@@H](OCC(C)C)[C@H](C)OC2=O)c1OCOC(C)=O [Compound 6] | > 80 |
| COc1ccnc(C(=O)N[C@H]2COCC[C@H](Cc3ccccc3)[C@@H](OCC(C)C)[C@H](C)OC2=O)c1OCOC(C)=O [Compound 20] | > 80 |
| COc1ccnc(C(=O)N[C@H]2COCC[C@H](Cc3ccccc3)[C@@H](OCC(C)C)[C@H](C)OC2=O)c1OC(C)=O [Compound 21] | > 80 |
| COc1ccnc(C(=O)N[C@H]2CCOC[C@H](Oc3ccccc3)[C@@H](Oc3ccccc3)[C@H](C)OC2=O)c1OCOC(C)=O [Compound 37] | > 80 |
